Four molecules from patent publication US5162315A, “Penetration enhancers” (priority 1989, dated 1992) can be followed below.

The format of data set [1] is in vitro ADME, human. Here is the method: The compounds of the present invention were tested in vitro as penetration enhancers according to the procedure outlined below.
(§1) Human stratum corneum was isolated from full thickness human skin as described by Bronaugh et al., J. Pharm. Sci. 75, 1094 (1986). The skin was placed between the donor and the receptor compartments of diffusion cells in such a way that the dermal side of the skin faced the receptor compartment which was filled with normal saline (pH 7.2-7.4). The stratum corneum was equilibrated at 37° C. overnight prior to the application of a topical formulation or transdermal patch. All formulations were studied in triplicate.
(§2) About 500 mg of the following three Isosorbide Dinitrate (ISDN) formulations (40% ISDN & 60% Lactose) were applied to cover the stratum corneum surface within the donor compartment. The entire contents of the receptor compartment were removed at specific time intervals over 48 hours and replenished with fresh saline. The aliquots were analyzed by HPLC and the average cumulative amount of ISDN in micrograms permeating over the study period was calculated.
Procedure of Example 8 was repeated with the following

Data set [2] is classed as in vitro ADME, human. Here is the method: The compounds of the present invention were tested in vitro as penetration enhancers according to the procedure outlined below. The penetration enhancers were formulated with pharmacologically active agents in creams and permeation of the active agent through human stratum corneum in vitro was compared to control formulation without enhancer. Higher permeation of the active agent in presence of an enhancer exemplified the invention.
as §1, §2
Procedure of Example 8 was repeated with the following Haloperiodol Decanoate (HD) cream formulations. Saline in the receptor compartment was substituted with saline/isopropyl alcohol (1:1).
The source holds these as a separate data set.

Take `CCCCCCCCCCCC1=NCCN1CCO` [1-(2-hydroxyethyl)-2-undecyl-2-imidazoline, reference compound]: in data set [1], the “Average Cumulative Amount of HC in Micrograms permeating over 48 hours” value turned out to be 67.53 ± 3.34 Micrograms.
With `CCCCCCCCCCCC(=O)NCCNCCO` [Example 1, N-[2-(2-hydroxyethyl)aminoethyl]dodecanamide], in data set [1], the “Average Cumulative Amount of HC in Micrograms permeating over 48 hours” value came to 55.19 ± 5.16 Micrograms, the “HC permeation compared to control cream” value is recorded as “superior permeation as compared to control cream” and the “HC permeation enhancement compared to cyclic isomer” value is “as effective as its cyclic isomer”.
Take `CCCCCCCCCCCC(=O)N1CCN(CCO)CC1` [Example 5, 1-(1-oxododecyl)-4-(2-hydroxyethyl)piperazine]: in data set [2], the “Average Cumulative Amount of HD in Micrograms permeating over 51 hours” value is reported as 936.66 ± 16.98 Micrograms and the “HD permeation compared to control” value is given as “higher HD permeation as compared to control”.
For the molecule `CCCCCCCCCC(=O)OC1(c2ccc(Cl)cc2)CCN(CCCC(=O)c2ccc(F)cc2)CC1` [HD, Haloperiodol Decanoate, reference compound], the “Average Cumulative Amount of HD in Micrograms permeating over 51 hours” value in data set [2] is recorded as 617.68 ± 17.68 Micrograms.
